Measured values published in patent US9376429B2, “Sodium channel blockers, preparation method thereof and use thereof” (Daewoong Pharmaceutical Co., Ltd., priority 2012, dated 2016).

Biological target: T1, sodium ion channel (Nav1.7) (Homo sapiens, UniProt Q15858)
T1 construct: host or cells: HEK293
Experiment: Blocking effect against sodium ion channel (Nav1.7), IonFlux16 auto patch clamp, hNav1.7 HEK293 cells
Type: cell-based
Conditions: peak current after 50 seconds treatment, eight concentrations
Method in brief: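 HEK293 cells stably expressing human Nav1.7 were recorded by IonFlux16 automated patch clamp in extracellular solution (pH 7.45, final DMSO ≤0.3%). Peak current was measured after 50 s exposure to each of eight compound concentrations and expressed as percent inhibition relative to pre-compound current.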

T1 sequence (Q15858 whole entry): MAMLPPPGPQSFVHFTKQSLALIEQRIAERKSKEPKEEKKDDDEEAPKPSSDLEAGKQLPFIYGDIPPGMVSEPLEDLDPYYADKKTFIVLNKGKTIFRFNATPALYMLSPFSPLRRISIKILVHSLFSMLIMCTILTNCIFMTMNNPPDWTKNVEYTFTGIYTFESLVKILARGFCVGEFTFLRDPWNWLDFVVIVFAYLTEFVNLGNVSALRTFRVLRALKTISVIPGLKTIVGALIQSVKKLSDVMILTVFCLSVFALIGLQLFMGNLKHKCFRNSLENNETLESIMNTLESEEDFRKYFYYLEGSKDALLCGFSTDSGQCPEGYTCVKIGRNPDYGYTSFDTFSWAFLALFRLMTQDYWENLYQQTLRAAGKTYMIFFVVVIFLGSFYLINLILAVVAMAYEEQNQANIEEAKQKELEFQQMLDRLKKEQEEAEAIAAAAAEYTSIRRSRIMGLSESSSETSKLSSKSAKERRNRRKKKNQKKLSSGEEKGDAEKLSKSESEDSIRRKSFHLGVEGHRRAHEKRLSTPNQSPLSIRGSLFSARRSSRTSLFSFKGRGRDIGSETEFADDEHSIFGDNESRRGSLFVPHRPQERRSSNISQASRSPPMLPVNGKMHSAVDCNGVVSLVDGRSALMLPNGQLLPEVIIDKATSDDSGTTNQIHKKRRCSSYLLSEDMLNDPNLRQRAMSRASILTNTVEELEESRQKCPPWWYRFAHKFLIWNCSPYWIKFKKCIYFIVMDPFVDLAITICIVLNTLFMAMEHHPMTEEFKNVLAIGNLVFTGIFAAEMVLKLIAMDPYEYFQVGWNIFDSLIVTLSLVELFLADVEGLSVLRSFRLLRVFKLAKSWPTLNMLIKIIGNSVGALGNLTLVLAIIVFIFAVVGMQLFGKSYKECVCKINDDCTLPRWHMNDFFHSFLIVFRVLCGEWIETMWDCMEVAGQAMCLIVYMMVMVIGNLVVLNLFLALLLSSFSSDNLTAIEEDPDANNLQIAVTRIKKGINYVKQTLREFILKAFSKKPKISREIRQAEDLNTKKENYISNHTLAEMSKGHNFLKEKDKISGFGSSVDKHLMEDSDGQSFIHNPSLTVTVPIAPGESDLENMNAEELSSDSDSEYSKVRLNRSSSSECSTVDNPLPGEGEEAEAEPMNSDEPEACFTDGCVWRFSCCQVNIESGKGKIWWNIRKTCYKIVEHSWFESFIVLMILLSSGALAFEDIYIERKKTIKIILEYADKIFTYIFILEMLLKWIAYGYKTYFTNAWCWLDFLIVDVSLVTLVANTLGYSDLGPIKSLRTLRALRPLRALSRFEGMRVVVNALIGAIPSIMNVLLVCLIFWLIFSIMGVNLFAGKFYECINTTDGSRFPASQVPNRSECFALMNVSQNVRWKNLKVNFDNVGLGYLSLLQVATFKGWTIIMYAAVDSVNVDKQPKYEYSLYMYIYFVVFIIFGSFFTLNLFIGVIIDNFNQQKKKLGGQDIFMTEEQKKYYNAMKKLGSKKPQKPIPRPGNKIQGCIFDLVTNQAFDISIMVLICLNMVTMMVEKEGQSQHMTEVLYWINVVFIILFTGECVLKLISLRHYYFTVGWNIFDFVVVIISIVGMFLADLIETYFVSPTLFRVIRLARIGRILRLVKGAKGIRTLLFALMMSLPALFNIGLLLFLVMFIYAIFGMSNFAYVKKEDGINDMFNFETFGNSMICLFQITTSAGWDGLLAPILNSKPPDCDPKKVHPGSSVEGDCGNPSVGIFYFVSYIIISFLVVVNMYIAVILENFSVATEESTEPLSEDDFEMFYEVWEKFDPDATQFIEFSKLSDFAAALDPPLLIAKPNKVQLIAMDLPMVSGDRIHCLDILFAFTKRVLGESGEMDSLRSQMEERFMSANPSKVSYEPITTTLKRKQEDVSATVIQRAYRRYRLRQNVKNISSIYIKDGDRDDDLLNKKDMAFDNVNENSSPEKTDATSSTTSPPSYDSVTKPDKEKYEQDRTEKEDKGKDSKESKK

| IC50 [nM] | Compound |
| --- | --- |
| > 100 | Cn1nccc1-c1nc(-c2ccccc2F)ccc1Oc1ccc(S(=O)(=O)Nc2nccs2)cc1C#N [Example 118, 3-cyano-4-((6-(2-fluorophenyl)-2-(1-methyl-1H-pyrazol-5-yl)pyridin-3-yl)oxy)-N-(thiazol-2-yl)benzenesulfonamide] |
| 51 to 100 | Cn1nccc1-c1nc(-c2ccsc2)ccc1Oc1ccc(S(=O)(=O)Nc2nccs2)cc1C#N [Example 119, 3-cyano-4-((2-(1-methyl-1H-pyrazol-5-yl)-6-(thiophen-3-yl)pyridin-3-yl)oxy)-N-(thiazol-2-yl)benzenesulfonamide] |
| > 100 | Cn1cc(-c2ccc(Oc3ccc(S(=O)(=O)Nc4nccs4)cc3C#N)c(-c3ccnn3C)n2)cn1 [Example 120, 3-cyano-4-((6-(1-methyl-1H-pyrazol-4-yl)-2-(1-methyl-1H-pyrazol-5-yl)pyridin-3-yl)oxy)-N-(thiazol-2-yl)benzenesulfonamide] |
| > 100 | Cn1nccc1-c1nc(-c2cnoc2)ccc1Oc1ccc(S(=O)(=O)Nc2nccs2)cc1C#N [Example 121, 3-cyano-4-((6-(isoxazol-4-yl)-2-(1-methyl-1H-pyrazol-5-yl)pyridin-3-yl)oxy)-N-(thiazol-2-yl)benzenesulfonamide] |
| 51 to 100 | Cn1cc(-c2nc(-c3cccc(F)c3)ccc2Oc2ccc(S(=O)(=O)Nc3nccs3)cc2C#N)cn1 [Example 122, 3-cyano-4-((6-(3-fluorophenyl)-2-(1-methyl-1H-pyrazol-4-yl)pyridin-3-yl)oxy)-N-(thiazol-2-yl)benzenesulfonamide] |
| > 100 | Cn1cc(-c2nc(-c3cccnc3F)ccc2Oc2ccc(S(=O)(=O)Nc3nccs3)cc2C#N)cn1 [Example 123, 3-cyano-4-((2′-fluoro-6-(1-methyl-1H-pyrazol-4-yl)-[2,3′-bipyridin]-5-yl)oxy)-N-(thiazol-2-yl)benzenesulfonamide] |
| > 100 | Cn1cc(-c2nc(-c3ccc(F)nc3)ccc2Oc2ccc(S(=O)(=O)Nc3nccs3)cc2C#N)cn1 [Example 124, 3-cyano-4-((6′-fluoro-6-(1-methyl-1H-pyrazol-4-yl)-[2,3′-bipyridin]-5-yl)oxy)-N-(thiazol-2-yl)benzenesulfonamide] |
| > 100 | Cn1cc(-c2nc(-c3ccnc(F)c3)ccc2Oc2ccc(S(=O)(=O)Nc3nccs3)cc2C#N)cn1 [Example 125, 3-cyano-4-((2′-fluoro-6-(1-methyl-1H-pyrazol-4-yl)-[2,4′-bipyridin]-5-yl)oxy)-N-(thiazol-2-yl)benzenesulfonamide] |
| > 100 | Cn1cc(-c2nc(-c3ccc(F)nc3F)ccc2Oc2ccc(S(=O)(=O)Nc3nccs3)cc2C#N)cn1 [Example 126, 3-cyano-4-((2′,6′-difluoro-6-(1-methyl-1H-pyrazol-4-yl)-[2,3′-bipyridin]-5-yl)oxy)-N-(thiazol-2-yl)benzenesulfonamide] |
| 51 to 100 | N#Cc1cc(S(=O)(=O)Nc2nccs2)ccc1Oc1ccc(-c2ccc(F)nc2F)nc1-c1ccoc1 [Example 127, 3-cyano-4-((2′,6′-difluoro-6-(furan-3-yl)-[2,3′-bipyridin]-5-yl)oxy)-N-(thiazol-2-yl)benzenesulfonamide] |
| > 100 | Cn1nccc1-c1nc(-c2ccc(F)nc2F)ccc1Oc1ccc(S(=O)(=O)Nc2nccs2)cc1C#N [Example 128, 3-cyano-4-((2′,6′-difluoro-6-(1-methyl-1H-pyrazol-5-yl)-[2,3′-bipyridin]-5-yl)oxy)-N-(thiazol-2-yl)benzenesulfonamide] |
| > 100 | O=S(=O)(Nc1cscn1)c1cc(Cl)c(Oc2ccc(-c3ccc(F)nc3F)nc2-c2ccoc2)cc1F [Example 129, 5-chloro-4-((2′,6′-difluoro-6-(furan-3-yl)-[2,3′-bipyridin]-5-yl)oxy)-2-fluoro-N-(thiazol-4-yl)benzenesulfonamide] |
| > 100 | O=S(=O)(Nc1cscn1)c1cc(Cl)c(Oc2ccc(-c3ccc(F)nc3)nc2-c2ccoc2)cc1F [Example 130, 5-chloro-2-fluoro-4-((6′-fluoro-6-(furan-3-yl)-[2,3′-bipyridin]-5-yl)oxy)-N-(thiazol-4-yl)benzenesulfonamide] |
| 51 to 100 | O=S(=O)(Nc1cscn1)c1cc(Cl)c(Oc2ccc(-c3ccc(F)cc3)nc2-c2ccoc2)cc1F [Example 131, 5-chloro-2-fluoro-4-((6-(4-fluorophenyl)-2-(furan-3-yl)pyridin-3-yl)oxy)-N-(thiazol-4-yl)benzenesulfonamide] |
| > 100 | O=S(=O)(Nc1cscn1)c1cc(Cl)c(Oc2ccc(-c3ccnc(F)c3)nc2-c2ccoc2)cc1F [Example 132, 5-chloro-2-fluoro-4-((2′-fluoro-6-(furan-3-yl)-[2,4′-bipyridin]-5-yl)oxy)-N-(thiazol-4-yl)benzenesulfonamide] |
| > 100 | O=S(=O)(Nc1cscn1)c1cc(Cl)c(Oc2ccc(-c3ccccc3F)nc2-c2ccoc2)cc1F [Example 133, 5-chloro-2-fluoro-4-((6-(2-fluorophenyl)-2-(furan-3-yl)pyridin-3-yl)oxy)-N-(thiazol-4-yl)benzenesulfonamide] |
| > 100 | Cn1nccc1-c1nc(-c2ccc(F)nc2F)ccc1Oc1cc(F)c(S(=O)(=O)Nc2cscn2)cc1Cl [Example 134, 5-chloro-4-((2′,6′-difluoro-6-(1-methyl-1H-pyrazol-5-yl)-[2,3′-bipyridin]-5-yl)oxy)-2-fluoro-N-(thiazol-4-yl)benzenesulfonamide] |

| IC50 [nM] | Compound |
| --- | --- |
| > 100 | Cn1nccc1-c1nc(-c2ccc(F)cc2)ccc1Oc1cc(F)c(S(=O)(=O)Nc2cscn2)cc1Cl [Example 135, 5-chloro-2-fluoro-4-((6-(4-fluorophenyl)-2-(1-methyl-1H-pyrazol-5-yl)pyridin-3-yl)oxy)-N-(thiazol-4-yl)benzenesulfonamide] |
| > 100 | Cn1nccc1-c1nc(-c2ccccc2F)ccc1Oc1cc(F)c(S(=O)(=O)Nc2cscn2)cc1Cl [Example 136, 5-chloro-2-fluoro-4-((6-(2-fluorophenyl)-2-(1-methyl-1H-pyrazol-5-yl)pyridin-3-yl)oxy)-N-(thiazol-4-yl)benzenesulfonamide] |
| > 100 | Cn1nccc1-c1nc(-c2ccc(F)nc2)ccc1Oc1cc(F)c(S(=O)(=O)Nc2cscn2)cc1Cl [Example 137, 5-chloro-2-fluoro-4-((6′-fluoro-6-(1-methyl-1H-pyrazol-5-yl)-[2,3′-bipyridin]-5-yl)oxy)-N-(thiazol-4-yl)benzenesulfonamide] |
| > 100 | Cn1nccc1-c1cc(Cl)ccc1C(O)c1ccc(S(=O)(=O)Nc2nccs2)cc1 (stereo not drawn) [Example 138, 4-((4-chloro-2-(1-methyl-1H-pyrazol-5-yl)phenyl)(hydroxy)methyl)-N-(thiazol-2-yl)benzenesulfonamide] |
| > 100 | O=S(=O)(Nc1nccs1)c1ccc(C(O)c2ccc(Cl)cc2-c2cn[nH]c2)c(F)c1 (stereo not drawn) [Example 139, 4-((4-chloro-2-(1H-pyrazol-4-yl)phenyl)(hydroxy)methyl)-3-fluoro-N-(thiazol-2-yl)benzenesulfonamide] |
| > 100 | O=S(=O)(Nc1nccs1)c1ccc(C(O)c2ccc(Cl)cc2-c2ccoc2)c(F)c1 (stereo not drawn) [Example 140, 4-((4-chloro-2-(furan-3-yl)phenyl)(hydroxy)methyl)-3-fluoro-N-(thiazol-2-yl)benzenesulfonamide] |
| > 100 | O=S(=O)(Nc1nccs1)c1ccc(C(O)c2ccc(-c3ccoc3)cc2-c2ccoc2)c(F)c1 (stereo not drawn) [Example 141, 4-((2,4-di(furan-3-yl)phenyl)(hydroxy)methyl)-3-fluoro-N-(thiazol-2-yl)benzenesulfonamide] |
| > 100 | Cn1nccc1-c1ccccc1C(O)c1ccc(S(=O)(=O)Nc2nccs2)cc1F (stereo not drawn) [Example 142, 3-fluoro-4-(hydroxy(2-(1-methyl-1H-pyrazol-5-yl)phenyl)methyl)-N-(thiazol-2-yl)benzenesulfonamide] |
| < 50 | O=S(=O)(Nc1nccs1)c1ccc(C(O)c2ccc(Cl)cc2-c2ccoc2)cc1 (stereo not drawn) [Example 143, 4-((4-chloro-2-(furan-3-yl)phenyl)(hydroxy)methyl)-N-(thiazol-2-yl)benzenesulfonamide] |
| > 100 | Cn1nccc1-c1cc(Cl)ccc1C(O)c1ccc(S(=O)(=O)Nc2nccs2)cc1F (stereo not drawn) [Example 144, 4-((4-chloro-2-(1-methyl-1H-pyrazol-5-yl)phenyl)(hydroxy)methyl)-3-fluoro-N-(thiazol-2-yl)benzenesulfonamide] |
| > 100 | O=S(=O)(Nc1nccs1)c1ccc(C(O)c2ccc(Cl)cc2-c2cccnc2)c(F)c1 (stereo not drawn) [Example 145, 4-((4-chloro-2-(pyridin-3-yl)phenyl)(hydroxy)methyl)-3-fluoro-N-(thiazol-2-yl)benzenesulfonamide] |
| > 100 | O=S(=O)(Nc1nccs1)c1ccc(C(O)c2ccc(Cl)cc2-c2ccncc2)c(F)c1 (stereo not drawn) [Example 146, 4-((4-chloro-2-(pyridin-4-yl)phenyl)(hydroxy)methyl)-3-fluoro-N-(thiazol-2-yl)benzenesulfonamide] |
| > 100 | O=S(=O)(Nc1nccs1)c1ccc(C(O)c2ccc(Cl)cc2-c2ccncc2)cc1 (stereo not drawn) [Example 147, 4-((4-chloro-2-(pyridin-4-yl)phenyl)(hydroxy)methyl)-N-(thiazol-2-yl)benzenesulfonamide] |
| > 100 | O=S(=O)(Nc1nccs1)c1ccc(C(O)c2ccc(Cl)cc2-c2cccnc2)cc1 (stereo not drawn) [Example 148, 4-((4-chloro-2-(pyridin-3-yl)phenyl)(hydroxy)methyl)-N-(thiazol-2-yl)benzenesulfonamide] |
| > 100 | O=S(=O)(Nc1nccs1)c1ccc(C(O)c2ccc(-c3ccoc3)cc2-c2ccoc2)cc1 (stereo not drawn) [Example 149, 4-((2,4-di(furan-3-yl)phenyl)(hydroxy)methyl)-N-(thiazol-2-yl)benzenesulfonamide] |
| > 100 | O=S(=O)(Nc1nccs1)c1ccc(C(O)c2ccc(-c3cccnc3F)cc2-c2ccoc2)cc1 (stereo not drawn) [Example 150, 4-((4-(2-fluoropyridin-3-yl)-2-(furan-3-yl)phenyl)(hydroxy)methyl)-N-(thiazol-2-yl)benzenesulfonamide] |
